Experimental data: patent publication US20070049564A1 (Wyeth, priority 2005, published 2007)
≈ marks a conversion by molar mass, not a printed value. Read-outs that look alike come from different tables or passages of the source.

Experiments:
[1] = system: S. aureus GC 1131; test: MIC, broth microdilution; conditions: Staphylococcus aureus
[2] = system: S. pyogenes GC 4563; test: MIC, broth microdilution; conditions: Streptococcus pyogenes
[3] = system: S. aureus GC 6335; test: MIC, broth microdilution; conditions: Staphylococcus aureus
[4] = system: E. coli GC 2271; test: MIC, broth microdilution; conditions: Escherichia coli
[5] = system: E. faecalis GC 2242; test: MIC, broth microdilution; conditions: Enterococcus faecalis
Protocol: Antimicrobial susceptibility testing. The in vitro activities of the antibiotics are determined by the broth microdilution method as recommended by the National Committee for Clinical Laboratory Standards (NCCLS) (1). Mueller-Hinton II broth (MHBII)(BBL Cockeysville, Md.) is the medium employed in the testing procedures. Microtiter plates containing serial dilutions of each antimicrobial agent are inoculated with each organism to yield the appropriate density (10^5 CFU/ml) in a 100 μl final volume. The plates are incubated for 18-22 hours at 35° C. in ambient air.
Representative compounds were first incubated in mouse serum for an hour prior to the in vitro testing against a panel of selected gram-positive and gram-negative bacteria strains. All compounds were also pre-incubated in water for an hour prior to testing as control. Representative compounds of Formula I were incubated in human serum prior to MIC determination.

[6] = system: E. coli GC 1073; test: MIC, broth microdilution; conditions: Escherichia coli
[7] = system: S. aureus GC 1079; test: MIC, broth microdilution; conditions: Staphylococcus aureus
[8] = system: c. albicans GC 3066; test: MIC, broth microdilution; conditions: for MIC: Candida albicans, GC3066, read-out: MINIMAL INHIBITORY CONCENTRATION MIC; for MINIMAL INHIBITORY CONCENTRATION MIC: pre-incubated in Water
[9] = system: E. coli GC 2270; test: MIC, broth microdilution; conditions: Escherichia coli
[10] = system: E. coli GC 2235; test: MIC, broth microdilution; conditions: Escherichia coli
[11] = system: P. aeruginosa GC 2214; test: MIC, broth microdilution; conditions: Pseudomonas aeruginosa
[12] = system: S. pneumoniae+ GC 4465; test: MIC, broth microdilution; conditions: Streptococcus pneumoniae
[13] = system: Staph. aureus Smith; test: In vivo activity (oral, iv; ED50) against Staph. aureus Smith in mice
Protocol: Representative examples of compounds of Formula I were tested for the oral efficacy using S. aureus Smith in mice.

[14] = system: E. coli GC 2233; test: MIC, broth microdilution; conditions: Escherichia coli
[15] = system: E. coli GC 4559; test: MIC, broth microdilution; conditions: Escherichia coli
[16] = system: E. coli GC 2234; test: MIC, broth microdilution; conditions: Escherichia coli
[17] = system: E. coli GC 2236; test: MIC, broth microdilution; conditions: Escherichia coli
[18] = system: E. faecium GC 4556; test: MIC, broth microdilution; conditions: Enterococcus faecium
[19] = system: S. aureus GC 2216; test: MIC, broth microdilution; conditions: Staphylococcus aureus
[20] = system: S. epidermidis GC 4935; test: MIC, broth microdilution; conditions: Staphylococcus epidermidis
[21] = GC1131, read-out: MINIMAL INHIBITORY CONCENTRATION MIC, pre-incubated in Mouse Serum
[22] = GC1131, read-out: MINIMAL INHIBITORY CONCENTRATION MIC, pre-incubated in Water
[23] = GC4563, read-out: MINIMAL INHIBITORY CONCENTRATION MIC, pre-incubated in Mouse Serum
[24] = GC4563, read-out: MINIMAL INHIBITORY CONCENTRATION MIC, pre-incubated in Water
[25] = GC6335, read-out: MINIMAL INHIBITORY CONCENTRATION MIC, pre-incubated in Mouse Serum
[26] = GC6335, read-out: MINIMAL INHIBITORY CONCENTRATION MIC, pre-incubated in Water
[27] = GC2271, read-out: MINIMAL INHIBITORY CONCENTRATION MIC, pre-incubated in Mouse Serum
[28] = GC2271, read-out: MINIMAL INHIBITORY CONCENTRATION MIC, pre-incubated in Water
[29] = GC2242, read-out: MINIMAL INHIBITORY CONCENTRATION MIC, pre-incubated in Mouse Serum
[30] = GC2242, read-out: MINIMAL INHIBITORY CONCENTRATION MIC, pre-incubated in Water
[31] = GC1073, read-out: MINIMAL INHIBITORY CONCENTRATION MIC, pre-incubated in Mouse Serum
[32] = GC1073, read-out: MINIMAL INHIBITORY CONCENTRATION MIC, pre-incubated in Water
[33] = GC1079, read-out: MINIMAL INHIBITORY CONCENTRATION MIC, pre-incubated in Mouse Serum
[34] = GC1079, read-out: MINIMAL INHIBITORY CONCENTRATION MIC, pre-incubated in Water
[35] = GC2270, read-out: MINIMAL INHIBITORY CONCENTRATION MIC, pre-incubated in Mouse Serum
[36] = GC2270, read-out: MINIMAL INHIBITORY CONCENTRATION MIC, pre-incubated in Water
[37] = GC2235, read-out: MINIMAL INHIBITORY CONCENTRATION MIC, pre-incubated in Mouse Serum
[38] = GC2235, read-out: MINIMAL INHIBITORY CONCENTRATION MIC, pre-incubated in Water
[39] = GC2214, read-out: MINIMAL INHIBITORY CONCENTRATION MIC, pre-incubated in Mouse Serum
[40] = GC2214, read-out: MINIMAL INHIBITORY CONCENTRATION MIC, pre-incubated in Water
[41] = read-out: MINIMAL INHIBITORY CONCENTRATION MIC, pre-incubated in Mouse Serum
[42] = read-out: MINIMAL INHIBITORY CONCENTRATION MIC, pre-incubated in Water
[43] = Staphylococcus aureus, in Mus musculus, po, read-out: ED50 Staph Smith SOD
[44] = iv, read-out: ED50 Staph Smith SIV
[45] = GC2233, read-out: MINIMAL INHIBITORY CONCENTRATION MIC, pre-incubated in Mouse Serum
[46] = GC2233, read-out: MINIMAL INHIBITORY CONCENTRATION MIC, pre-incubated in Water
[47] = GC4559, read-out: MINIMAL INHIBITORY CONCENTRATION MIC, pre-incubated in Mouse Serum
[48] = GC4559, read-out: MINIMAL INHIBITORY CONCENTRATION MIC, pre-incubated in Water
[49] = GC2234, read-out: MINIMAL INHIBITORY CONCENTRATION MIC, pre-incubated in Mouse Serum
[50] = GC2234, read-out: MINIMAL INHIBITORY CONCENTRATION MIC, pre-incubated in Water
[51] = GC2236, read-out: MINIMAL INHIBITORY CONCENTRATION MIC, pre-incubated in Mouse Serum
[52] = GC2236, read-out: MINIMAL INHIBITORY CONCENTRATION MIC, pre-incubated in Water
[53] = GC4556, read-out: MINIMAL INHIBITORY CONCENTRATION MIC, pre-incubated in Mouse Serum
[54] = GC4556, read-out: MINIMAL INHIBITORY CONCENTRATION MIC, pre-incubated in Water
[55] = GC2216, read-out: MINIMAL INHIBITORY CONCENTRATION MIC, pre-incubated in Mouse Serum
[56] = GC2216, read-out: MINIMAL INHIBITORY CONCENTRATION MIC, pre-incubated in Water
[57] = GC4935, read-out: MINIMAL INHIBITORY CONCENTRATION MIC, pre-incubated in Mouse Serum
[58] = GC4935, read-out: MINIMAL INHIBITORY CONCENTRATION MIC, pre-incubated in Water

SMILES: CCCN(CC(=O)Nc1cc(N(C)C)c2c(c1O)C(=O)C1=C(O)[C@]3(O)C(=O)C(C(N)=O)=C(O)[C@@H](N(C)C)[C@@H]3C[C@@H]1C2)C(=O)OCOC(=O)c1ccc(C(C)(C)C)cc1 [Example 28, ({[(2-{[(5aR,6aS,7S,10aS)-9-(aminocarbonyl)-4,7-bis(dimethylamino)-1,8,10a,11-tetrahydroxy-10,12-dioxo-5,5a,6,6a,7,10,10a,12-octahydrotetracen-2-yl]amino}-2-oxoethyl)(propyl)amino]carbonyl}oxy)methyl 4-tert-butylbenzoate]
- MIC [1, 21]: 0.5 mg/L (≈ 0.62 µM)
- MIC [1, 22]: 32 mg/L (≈ 39.7 µM)
- MIC [2, 23]: < 0.06 mg/L
- MIC [2, 24]: < 0.06 mg/L
- MIC [3, 25]: 1 mg/L (≈ 1.24 µM)
- MIC [3, 26]: 16 mg/L (≈ 19.9 µM)
- MIC [4, 27]: 0.25 mg/L (≈ 0.31 µM)
- MIC [4, 28]: > 64 mg/L
- MIC [5, 29]: 0.5 mg/L (≈ 0.62 µM)
- MIC [5, 30]: 4 mg/L (≈ 4.96 µM)
- MIC [6, 31]: 0.5 mg/L (≈ 0.62 µM)
- MIC [6, 32]: > 64 mg/L
- MIC [7, 33]: 2 mg/L (≈ 2.48 µM)
- MIC [7, 34]: 64 mg/L (≈ 79.4 µM)
- MIC [8]: > 64 mg/L
- MINIMAL INHIBITORY CONCENTRATION MIC [8]: >64 UG/ML
- MIC [9, 35]: 0.5 mg/L (≈ 0.62 µM)
- MIC [9, 36]: > 64 mg/L
- MIC [10, 37]: 0.5 mg/L (≈ 0.62 µM)
- MIC [10, 38]: > 64 mg/L
- MIC [11, 39]: 16 mg/L (≈ 19.9 µM)
- MIC [11, 40]: > 64 mg/L
- MIC [12, 41]: 2 mg/L (≈ 2.48 µM)
- MIC [12, 42]: 0.5 mg/L (≈ 0.62 µM)
- ED50 ([13]; Staphylococcus aureus, in Mus musculus, iv, read-out: ED50 SIV (Staph aureus Smith)): 0.6 mg/kg
- ED50 ([13]; Staphylococcus aureus, in Mus musculus, po, read-out: ED50 SOD (Staph aureus Smith)): 6.61 mg/kg
- ED50 [13, 43]: 6.61 mg/kg
- ED50 [13, 44]: 0.6 mg/kg
- MIC [14, 45]: 0.5 mg/L (≈ 0.62 µM)
- MIC [14, 46]: > 64 mg/L
- MIC [15, 47]: 0.5 mg/L (≈ 0.62 µM)
- MIC [15, 48]: > 64 mg/L
- MIC [16, 49]: 0.25 mg/L (≈ 0.31 µM)
- MIC [16, 50]: > 64 mg/L
- MIC [17, 51]: 0.5 mg/L (≈ 0.62 µM)
- MIC [17, 52]: > 64 mg/L
- MIC [18, 53]: 0.5 mg/L (≈ 0.62 µM)
- MIC [18, 54]: 32 mg/L (≈ 39.7 µM)
- MIC [19, 55]: 0.5 mg/L (≈ 0.62 µM)
- MIC [19, 56]: 32 mg/L (≈ 39.7 µM)
- MIC [20, 57]: 1 mg/L (≈ 1.24 µM)
- MIC [20, 58]: 32 mg/L (≈ 39.7 µM)

SMILES: CCCCN(CC(=O)Nc1cc(N(C)C)c2c(c1O)C(=O)C1=C(O)[C@]3(O)C(=O)C(C(N)=O)=C(O)[C@@H](N(C)C)[C@@H]3C[C@@H]1C2)C(=O)OCOC(=O)c1ccc(-c2ccccc2)cc1 [Example 21, ({[(2-{[(5aR,6aS,7S,10aS)-9-(aminocarbonyl)-4,7-bis(dimethylamino)-1,8,10a,11-tetrahydroxy-10,12-dioxo-5,5a,6,6a,7,10,10a,12-octahydrotetracen-2-yl]amino}-2-oxoethyl)(butyl)amino]carbonyl}oxy)methyl 1,1′-biphenyl-4-carboxylate]
- MIC [1, 21]: 1 mg/L (≈ 1.19 µM)
- MIC [1, 22]: 64 mg/L (≈ 76.2 µM)
- MIC [2, 23]: 0.25 mg/L (≈ 0.298 µM)
- MIC [2, 24]: 0.12 mg/L (≈ 0.143 µM)
- MIC [3, 25]: 2 mg/L (≈ 2.38 µM)
- MIC [3, 26]: 64 mg/L (≈ 76.2 µM)
- MIC [4, 27]: 0.5 mg/L (≈ 0.595 µM)
- MIC [4, 28]: > 64 mg/L
- MIC [5, 29]: 2 mg/L (≈ 2.38 µM)
- MIC [5, 30]: 32 mg/L (≈ 38.1 µM)
- MIC [6, 31]: 1 mg/L (≈ 1.19 µM)
- MIC [6, 32]: > 64 mg/L
- MIC [7, 33]: 4 mg/L (≈ 4.76 µM)
- MIC [7, 34]: > 64 mg/L
- MIC [8]: > 64 mg/L
- MINIMAL INHIBITORY CONCENTRATION MIC [8]: >64 UG/ML
- MIC [9, 35]: 1 mg/L (≈ 1.19 µM)
- MIC [9, 36]: > 64 mg/L
- MIC [10, 37]: 0.5 mg/L (≈ 0.595 µM)
- MIC [10, 38]: > 64 mg/L
- MIC [11, 39]: > 64 mg/L
- MIC [11, 40]: > 64 mg/L
- MIC [12, 41]: 4 mg/L (≈ 4.76 µM)
- MIC [12, 42]: 4 mg/L (≈ 4.76 µM)
- ED50 [13, 43]: > 32 mg/kg
- ED50 [13, 44]: 0.77 mg/kg
- MIC [14, 45]: 1 mg/L (≈ 1.19 µM)
- MIC [14, 46]: > 64 mg/L
- MIC [15, 47]: 1 mg/L (≈ 1.19 µM)
- MIC [15, 48]: > 64 mg/L
- MIC [16, 49]: 0.5 mg/L (≈ 0.595 µM)
- MIC [16, 50]: > 64 mg/L
- MIC [17, 51]: 1 mg/L (≈ 1.19 µM)
- MIC [17, 52]: > 64 mg/L
- MIC [18, 53]: 2 mg/L (≈ 2.38 µM)
- MIC [18, 54]: 64 mg/L (≈ 76.2 µM)
- MIC [19, 55]: 1 mg/L (≈ 1.19 µM)
- MIC [19, 56]: 64 mg/L (≈ 76.2 µM)
- MIC [20, 57]: 2 mg/L (≈ 2.38 µM)
- MIC [20, 58]: 64 mg/L (≈ 76.2 µM)
